According to patent publication US8247595B2, “Organic sulfur compound and its use for controlling harmful arthropod” (Sumitomo Chemical Company, Limited, priority 2007, dated 2012):

Experiments:
Format in all cases: in vivo
[1] = system: Musca domestica; assay: Test Example 2: treated filter paper with sucrose bait, death rate of Musca domestica; settings: 500 ppm test solution, 0.7 ml on filter paper, 10 female imagoes, after 24 hours
Protocol: (§1) Preparations of the present compounds (1), (2), (3), (4), (5), (6), (7), (8), (9), (10), (13), (18), (23), (24), (25), (26), (27), (28), (29), (30), (31), (32), (33), (34), (35), (38) and (39) obtained according to Formulation Example 44 were diluted so that the active ingredient concentration was 500 ppm to obtain test solutions.
(§2) A filter paper having a diameter of 5.5 cm was spread on the bottom of a polyethylene cup having a diameter of 5.5 cm and 0.7 ml of the test solution was added dropwise onto the filter paper. As a bait 30 mg of sucrose was uniformly placed on the filter paper. Into the polyethylene cup, 10 female imagoes of Musca domestica were released and the cup was sealed with a lid. After 24 hours, the number of surviving Musca domestica was examined and the death rate of the pest was calculated.
As a result, in treatments with the present compounds (1), (2), (3), (4), (5), (6), (7), (8), (9), (10), (13), (18), (23), (24), (25), (26), (27), (28), (29), (30), (31), (32), (33), (34), (35), (38) and (39), the death rate of the pest was 70% or more.

[2] = system: Blattalla germanica; assay: Test Example 3: treated filter paper with sucrose bait, death rate of Blattalla germanica; settings: 144 h; 500 ppm test solution, 0.7 ml on filter paper; 2 male imagoes; after 6 days
Protocol: as §1, with “compounds” for “compounds (1), (2),”, “(7),” for “(7), (8),”, “(13),” for “(13), (18),”
as §2, with “2 male” for “10 female”, “Blattalla germanica” for “Musca domestica”, “6 days,” for “24 hours,”
As a result, in treatments with the present compounds (3), (4), (5), (6), (7), (9), (10), (13), (23), (24), (25), (26), (27), (28), (29), (30), (31), (32), (33), (34), (35), (38) and (39), the death rate of the pest was 100%.

[3] = system: Culex pipiens pallens; assay: Test Example 4: larvae released into treated water, death rate of Culex pipiens pallens; settings: 24 h, active ingredient concentration 3.5 ppm in water, 20 last-instar larvae, after one day
Protocol: as §1, with “(7),” for “(7), (8), (9), (10),”, “(13), (14), (15), (16),” for “(13),”, “(18), (22),” for “(18),”, “(35), (36),” for “(35),”
To 100 mL of ion-exchanged water, 0.7 ml of the test solution was added (active ingredient concentration: 3.5 ppm). Into the solution, 20 last-instar larvae of Culex pipiens pallens were released. After one day, the number of surviving Culex pipiens pallens was examined and the death rate of the pest was calculated.
As a result, in treatments with the present compounds (1), (2), (3), (4), (5), (6), (7), (13), (14), (15), (16), (18), (22), (23), (24), (25), (26), (27), (28), (29), (30), (31), (32), (33), (34), (35), (36), (38) and (39), the death rate of the pest was 90% or more.

[4] = system: Haemaphysalis longicornis; assay: Test Example 5: treated filter paper pouch, death rate of ticks; settings: 48 h, filter paper treated with 100 mg/m^2, non-blood-sucking nymphal ticks, 10 ticks/group, after 2 days, read-out: death rate of the tick
Protocol: Five milligrams of any one of the present compounds (19), (23), (24), (27), (28), (29), (32), (33), (35), (38) and (39) was dissolved in 10 mL of acetone. One milliliter of the acetone solution was uniformly applied on one side of a filter paper (TOYO No. 2; 5×10 cm), so that the filter paper was treated with 100 mg/m^2 of the present compound. After drying, the filter paper was folded in two and its edges were clipped to make a pouch. Non-blood-sucking nymphal ticks (Haemaphysalis longicornis, 10 ticks/group) were put into the pouch, and the pouch was sealed with clips. After 2 days, the number of surviving ticks was examined and the death rate was calculated.
As a result, in treatments with the present compounds (19), (23), (24), (27), (28), (29), (32), (33), (35), (38) and (39), the death rate of the tick was 90%.

SMILES	pest or weed control at 500 ppm [1] [%]	pest or weed control at 500 ppm [2] [%]	pest or weed control at 3.5 ppm [3] [%]	pest or weed control at 100 mg/m2 [4] [%]
C#CCOCCC(C)(C#N)S(=O)(=O)CCC(F)(F)F (centres unmarked) [present compound (39), 2-methyl-4-(2-propynyloxy)-2-(3,3,3-trifluoropropylsulfonyl)butanenitrile]	≥ 70	100	≥ 90	90
C/C(=C\CC(C#N)S(=O)(=O)CCC(F)(F)F)C(F)(F)F (centres unmarked) [present compound (35), 6,6,6-trifluoro-5-methyl-2-(3,3,3-trifluoropropylsulfonyl)-4-hexenenitrile]	≥ 70	100	≥ 90	90
C#CCC(C)(C)CCC(C#N)S(=O)(=O)CCC(F)(F)F (centres unmarked) [present compound (33), 5,5-dimethyl-2-(3,3,3-trifluoropropylsulfonyl)-7-octynenitrile]	≥ 70	100	≥ 90	90
C#CCCCCCC(C#N)S(=O)(=O)CCC(F)(F)F (centres unmarked) [present compound (24), 2-(3,3,3-trifluoropropylsulfonyl)-8-nonynenitrile]	≥ 70	100	≥ 90	90
C#CCC(CC)CCC(Cl)(C(N)=O)S(=O)(=O)CCC(F)(F)F (centres unmarked) [present compound (32), 2-chloro-5-ethyl-2-(3,3,3-trifluoropropylsulfonyl)-7-octynamide]	≥ 70	100	≥ 90	90
C#CCOCCC(C#N)S(=O)(=O)CCC(F)(F)F (centres unmarked) [present compound (38), 4-(2-propyonyloxy)-2-(3,3,3-trifluoropropylsulfonyl)butanenitrile]	≥ 70	100	≥ 90	90
C#CCCCCC(C#N)S(=O)(=O)CCC(F)(F)F (centres unmarked) [present compound (23), 2-(3,3,3-trifluoropropylsulfonyl)-7-octynenitrile]	≥ 70	100	≥ 90	90
C#CCC(C)CCC(C#N)S(=O)(=O)CCC(F)(F)F (centres unmarked) [present compound (27), 5-methyl-2-(3,3,3-trifluoropropylsulfonyl)-7-octynenitrile]	≥ 70	100	≥ 90	90
